# Test results reported in doi:10.1101/2023.12.04.569845, “Identification of 4-(6-((2-methoxyphenyl)amino)pyrazin-2-yl)benzoic acids as CSNK2A inhibitors with antiviral activity and improved selectivity over PIM3” (bioRxiv, 2023).
# Where two headings read alike, the source gives them in different places.
# Legend:
# Assay in all cases: biochemical
# Design in all cases: Thermal shift (DSF, SYPRO Orange) Tm shift of recombinant kinase domains at 10 uM compound
# MST1 = target: T1, MST1 (Homo sapiens, UniProt Q13043)
# T1 construct: gene STK4
# T1 sequence (Q13043 1-487): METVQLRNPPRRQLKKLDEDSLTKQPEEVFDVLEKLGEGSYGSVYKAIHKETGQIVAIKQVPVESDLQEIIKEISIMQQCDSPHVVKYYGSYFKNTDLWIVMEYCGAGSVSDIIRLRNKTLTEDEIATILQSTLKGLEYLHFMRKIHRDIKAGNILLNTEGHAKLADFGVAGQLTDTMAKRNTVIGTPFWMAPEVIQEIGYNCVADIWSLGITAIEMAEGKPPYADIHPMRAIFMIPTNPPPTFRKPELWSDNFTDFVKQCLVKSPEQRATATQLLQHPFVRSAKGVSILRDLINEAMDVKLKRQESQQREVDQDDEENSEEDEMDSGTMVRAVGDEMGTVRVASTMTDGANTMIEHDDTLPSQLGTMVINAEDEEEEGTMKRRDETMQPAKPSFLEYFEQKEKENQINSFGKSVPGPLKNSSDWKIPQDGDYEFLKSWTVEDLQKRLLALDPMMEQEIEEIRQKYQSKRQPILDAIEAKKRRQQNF
# CAMK4 = target: T2, CAMK4 (Homo sapiens, UniProt Q16566)
# T2 sequence (Q16566 1-473): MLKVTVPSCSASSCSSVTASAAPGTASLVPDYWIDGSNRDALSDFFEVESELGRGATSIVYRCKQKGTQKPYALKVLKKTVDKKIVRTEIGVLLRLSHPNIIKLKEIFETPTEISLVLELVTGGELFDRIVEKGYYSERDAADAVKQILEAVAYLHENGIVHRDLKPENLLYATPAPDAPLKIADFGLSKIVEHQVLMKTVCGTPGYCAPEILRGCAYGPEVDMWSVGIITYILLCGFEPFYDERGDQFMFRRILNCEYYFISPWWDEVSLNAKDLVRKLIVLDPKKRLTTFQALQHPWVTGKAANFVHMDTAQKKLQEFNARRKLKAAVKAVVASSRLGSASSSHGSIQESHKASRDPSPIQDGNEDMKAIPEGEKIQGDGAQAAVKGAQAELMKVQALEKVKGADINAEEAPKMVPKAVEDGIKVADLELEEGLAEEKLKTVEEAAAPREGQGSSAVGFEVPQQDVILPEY
# TLK1 = target: T3, TLK1 (Homo sapiens, UniProt Q9UKI8)
# T3 sequence (Q9UKI8 1-766): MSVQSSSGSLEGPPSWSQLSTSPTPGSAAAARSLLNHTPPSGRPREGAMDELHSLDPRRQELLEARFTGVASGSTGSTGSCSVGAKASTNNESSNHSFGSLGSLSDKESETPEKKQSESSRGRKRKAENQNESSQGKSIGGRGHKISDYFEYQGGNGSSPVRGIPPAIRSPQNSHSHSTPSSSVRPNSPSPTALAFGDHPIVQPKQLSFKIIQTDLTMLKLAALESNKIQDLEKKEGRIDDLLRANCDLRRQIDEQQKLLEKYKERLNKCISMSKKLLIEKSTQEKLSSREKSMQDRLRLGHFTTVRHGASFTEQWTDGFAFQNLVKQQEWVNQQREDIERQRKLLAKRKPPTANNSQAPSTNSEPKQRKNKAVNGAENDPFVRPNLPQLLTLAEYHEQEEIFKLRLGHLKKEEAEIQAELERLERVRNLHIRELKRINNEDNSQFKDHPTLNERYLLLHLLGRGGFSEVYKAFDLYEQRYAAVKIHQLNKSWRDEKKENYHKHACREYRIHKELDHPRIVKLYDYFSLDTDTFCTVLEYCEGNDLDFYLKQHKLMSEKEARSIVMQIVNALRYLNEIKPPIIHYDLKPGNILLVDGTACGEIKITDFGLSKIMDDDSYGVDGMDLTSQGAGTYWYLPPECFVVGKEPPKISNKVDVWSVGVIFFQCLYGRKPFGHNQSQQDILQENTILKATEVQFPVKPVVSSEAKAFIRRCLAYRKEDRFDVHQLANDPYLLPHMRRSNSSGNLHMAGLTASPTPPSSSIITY
# MYT1 = target: T4, MYT1 (Homo sapiens, UniProt Q99640)
# T4 construct: gene PKMYT1
# T4 sequence (Q99640 1-499): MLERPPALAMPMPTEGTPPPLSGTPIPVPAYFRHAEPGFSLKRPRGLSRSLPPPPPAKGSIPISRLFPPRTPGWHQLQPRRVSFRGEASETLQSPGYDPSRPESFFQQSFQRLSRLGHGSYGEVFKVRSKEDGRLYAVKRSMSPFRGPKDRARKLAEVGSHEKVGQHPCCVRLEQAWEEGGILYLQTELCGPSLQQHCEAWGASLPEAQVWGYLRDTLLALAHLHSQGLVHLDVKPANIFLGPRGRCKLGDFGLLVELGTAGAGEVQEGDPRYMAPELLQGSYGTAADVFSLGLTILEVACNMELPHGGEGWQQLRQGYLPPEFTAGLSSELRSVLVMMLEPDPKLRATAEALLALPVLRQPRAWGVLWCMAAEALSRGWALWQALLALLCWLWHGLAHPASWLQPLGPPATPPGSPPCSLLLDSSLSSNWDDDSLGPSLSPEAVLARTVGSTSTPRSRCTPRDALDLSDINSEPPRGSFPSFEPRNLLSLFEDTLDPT
# CAMK2B = CAMK2B (Homo sapiens, UniProt Q13554)
# Chain of CAMK2B (Q13554 whole entry): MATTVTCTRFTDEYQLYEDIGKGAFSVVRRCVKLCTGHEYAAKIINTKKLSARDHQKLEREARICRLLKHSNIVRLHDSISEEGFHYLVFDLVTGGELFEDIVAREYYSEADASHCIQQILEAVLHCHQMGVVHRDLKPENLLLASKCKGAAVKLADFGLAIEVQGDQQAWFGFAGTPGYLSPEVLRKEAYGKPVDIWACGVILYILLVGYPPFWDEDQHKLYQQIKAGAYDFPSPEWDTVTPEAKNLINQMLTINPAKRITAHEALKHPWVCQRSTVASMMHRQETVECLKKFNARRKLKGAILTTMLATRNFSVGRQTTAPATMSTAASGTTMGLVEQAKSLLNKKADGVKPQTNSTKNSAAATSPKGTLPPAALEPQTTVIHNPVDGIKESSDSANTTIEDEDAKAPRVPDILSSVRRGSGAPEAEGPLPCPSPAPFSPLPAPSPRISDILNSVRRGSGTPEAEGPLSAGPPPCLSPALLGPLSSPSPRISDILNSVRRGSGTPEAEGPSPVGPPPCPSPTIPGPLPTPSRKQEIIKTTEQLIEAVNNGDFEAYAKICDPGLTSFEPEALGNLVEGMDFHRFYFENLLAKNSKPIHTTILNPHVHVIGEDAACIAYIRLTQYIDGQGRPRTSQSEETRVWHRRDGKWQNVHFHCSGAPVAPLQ
# LOK = target: T5, LOK (Homo sapiens, UniProt O94804)
# T5 construct: gene STK10
# T5 sequence (O94804 whole entry): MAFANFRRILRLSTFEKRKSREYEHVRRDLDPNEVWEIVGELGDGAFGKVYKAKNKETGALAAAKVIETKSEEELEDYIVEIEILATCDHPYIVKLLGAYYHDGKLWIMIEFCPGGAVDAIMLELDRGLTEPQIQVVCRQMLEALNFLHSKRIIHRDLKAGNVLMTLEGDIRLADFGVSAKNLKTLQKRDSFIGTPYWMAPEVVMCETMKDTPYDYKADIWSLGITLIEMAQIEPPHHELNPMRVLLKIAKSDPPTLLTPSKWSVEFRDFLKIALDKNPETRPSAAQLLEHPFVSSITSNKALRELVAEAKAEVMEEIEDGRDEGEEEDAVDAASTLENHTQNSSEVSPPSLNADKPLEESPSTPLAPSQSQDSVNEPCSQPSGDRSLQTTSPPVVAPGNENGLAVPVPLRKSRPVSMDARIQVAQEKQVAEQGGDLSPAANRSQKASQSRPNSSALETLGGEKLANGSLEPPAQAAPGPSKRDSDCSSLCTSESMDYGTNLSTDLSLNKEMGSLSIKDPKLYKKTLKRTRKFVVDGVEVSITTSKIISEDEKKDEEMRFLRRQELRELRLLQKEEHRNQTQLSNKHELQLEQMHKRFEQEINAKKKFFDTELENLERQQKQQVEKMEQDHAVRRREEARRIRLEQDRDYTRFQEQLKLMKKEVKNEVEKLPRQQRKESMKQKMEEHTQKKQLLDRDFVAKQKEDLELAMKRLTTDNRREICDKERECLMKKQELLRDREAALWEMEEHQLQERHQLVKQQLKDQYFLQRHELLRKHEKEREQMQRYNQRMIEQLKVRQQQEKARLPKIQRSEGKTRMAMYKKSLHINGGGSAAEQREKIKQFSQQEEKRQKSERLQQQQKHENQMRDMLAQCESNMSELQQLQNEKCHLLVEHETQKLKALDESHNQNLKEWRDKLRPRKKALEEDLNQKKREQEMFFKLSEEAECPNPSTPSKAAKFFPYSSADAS
# DAPK1 = DAPK1 (Homo sapiens, UniProt P53355)
# Chain of DAPK1 (P53355 whole entry): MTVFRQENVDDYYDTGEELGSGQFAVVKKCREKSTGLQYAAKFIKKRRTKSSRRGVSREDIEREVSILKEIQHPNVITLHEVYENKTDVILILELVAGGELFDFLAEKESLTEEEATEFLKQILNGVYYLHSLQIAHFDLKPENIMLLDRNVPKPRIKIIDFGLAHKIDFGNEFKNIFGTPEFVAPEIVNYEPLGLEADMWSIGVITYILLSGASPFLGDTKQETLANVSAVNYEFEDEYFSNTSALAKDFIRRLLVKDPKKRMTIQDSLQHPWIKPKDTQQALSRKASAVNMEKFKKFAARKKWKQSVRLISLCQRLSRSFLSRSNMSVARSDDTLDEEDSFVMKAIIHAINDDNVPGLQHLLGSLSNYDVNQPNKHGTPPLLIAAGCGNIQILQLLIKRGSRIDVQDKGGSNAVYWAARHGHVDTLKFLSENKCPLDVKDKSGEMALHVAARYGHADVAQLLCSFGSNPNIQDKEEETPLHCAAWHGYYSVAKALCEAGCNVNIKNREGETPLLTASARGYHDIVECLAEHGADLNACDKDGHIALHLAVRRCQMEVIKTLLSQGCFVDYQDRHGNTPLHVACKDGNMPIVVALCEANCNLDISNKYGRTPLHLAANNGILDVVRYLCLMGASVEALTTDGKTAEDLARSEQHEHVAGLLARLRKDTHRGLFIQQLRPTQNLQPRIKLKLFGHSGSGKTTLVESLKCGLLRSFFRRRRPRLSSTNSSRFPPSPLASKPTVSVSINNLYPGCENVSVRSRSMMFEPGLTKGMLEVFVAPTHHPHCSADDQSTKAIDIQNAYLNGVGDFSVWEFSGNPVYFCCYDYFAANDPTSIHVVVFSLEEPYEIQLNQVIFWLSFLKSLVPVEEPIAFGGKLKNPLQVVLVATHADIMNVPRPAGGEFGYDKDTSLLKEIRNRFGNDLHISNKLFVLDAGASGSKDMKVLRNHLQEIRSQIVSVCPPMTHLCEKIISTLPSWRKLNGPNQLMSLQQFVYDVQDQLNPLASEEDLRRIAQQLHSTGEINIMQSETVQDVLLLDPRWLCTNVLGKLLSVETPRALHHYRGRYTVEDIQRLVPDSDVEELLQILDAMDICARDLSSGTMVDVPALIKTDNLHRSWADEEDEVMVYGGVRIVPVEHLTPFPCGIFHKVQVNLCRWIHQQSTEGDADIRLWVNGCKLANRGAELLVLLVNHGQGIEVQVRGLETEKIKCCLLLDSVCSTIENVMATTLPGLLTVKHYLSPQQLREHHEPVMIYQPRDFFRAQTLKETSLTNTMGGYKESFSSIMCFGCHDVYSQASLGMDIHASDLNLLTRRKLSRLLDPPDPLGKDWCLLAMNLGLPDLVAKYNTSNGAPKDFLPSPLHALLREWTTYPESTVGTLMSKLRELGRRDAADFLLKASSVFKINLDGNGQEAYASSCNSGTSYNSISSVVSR
# NDR2 = target: T6, NDR2 (Homo sapiens, UniProt Q9Y2H1)
# T6 construct: gene STK38L
# T6 sequence (Q9Y2H1 whole entry): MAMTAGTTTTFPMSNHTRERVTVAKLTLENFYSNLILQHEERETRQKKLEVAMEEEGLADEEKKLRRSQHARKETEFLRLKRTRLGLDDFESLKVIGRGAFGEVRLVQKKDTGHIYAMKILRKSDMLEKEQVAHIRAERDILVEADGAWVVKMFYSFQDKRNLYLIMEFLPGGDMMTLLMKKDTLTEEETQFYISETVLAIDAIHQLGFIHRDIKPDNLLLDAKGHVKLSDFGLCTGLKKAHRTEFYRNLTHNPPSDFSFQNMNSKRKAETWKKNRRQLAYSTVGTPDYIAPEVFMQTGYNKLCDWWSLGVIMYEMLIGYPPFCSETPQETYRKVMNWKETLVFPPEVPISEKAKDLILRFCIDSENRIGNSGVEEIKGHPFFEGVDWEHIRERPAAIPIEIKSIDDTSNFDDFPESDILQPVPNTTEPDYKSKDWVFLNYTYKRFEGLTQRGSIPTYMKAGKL
compound,measurement,setting,value
CC(C)Oc1ccc2ccn(-c3cncc(-c4ccc(C(=O)O)cc4)n3)c2c1 [6c],ΔTm at 10 µM,MST1; read-out: 6c,1 °C
same,ΔTm at 10 µM,CAMK4; read-out: 6c,0 °C
same,ΔTm at 10 µM,TLK1; read-out: 6c,-1 °C
same,ΔTm at 10 µM,MYT1; read-out: 6c,0 °C
same,ΔTm at 10 µM,CAMK2B; read-out: 6c,2 °C
same,ΔTm at 10 µM,LOK; read-out: 6c,4 °C
same,ΔTm at 10 µM,DAPK1; read-out: 6c,7 °C
same,ΔTm at 10 µM,NDR2; read-out: 6c,-1 °C
COc1ccc(OC(C)C)cc1Nc1cncc(-c2ccc(C(=O)O)cc2)n1 [7c],ΔTm at 10 µM,MST1; read-out: 7c,1 °C
same,ΔTm at 10 µM,CAMK4; read-out: 7c,-1 °C
same,ΔTm at 10 µM,TLK1; read-out: 7c,-1 °C
same,ΔTm at 10 µM,MYT1; read-out: 7c,0 °C
same,ΔTm at 10 µM,CAMK2B; read-out: 7c,1 °C
same,ΔTm at 10 µM,LOK; read-out: 7c,4 °C
same,ΔTm at 10 µM,DAPK1; read-out: 7c,6 °C
same,ΔTm at 10 µM,NDR2; read-out: 7c,-1 °C
"CC(C)Nc1ccc2cnn(-c3cncc(-c4ccc(C(=O)O)cc4)n3)c2c1 [compound 2, 2]",ΔTm at 10 µM,MST1; read-out: 2,3 °C
same,ΔTm at 10 µM,CAMK4; read-out: 2,1 °C
same,ΔTm at 10 µM,TLK1; read-out: 2,1 °C
same,ΔTm at 10 µM,MYT1; read-out: 2,0 °C
same,ΔTm at 10 µM,CAMK2B; read-out: 2,2 °C
same,ΔTm at 10 µM,LOK; read-out: 2,8 °C
same,ΔTm at 10 µM,DAPK1; read-out: 2,9 °C
same,ΔTm at 10 µM,NDR2; read-out: 2,-2 °C
